Several values for one entry are separate records, joined by “and”; a condition that tells them apart may be missing. Equal entries are not always repeated. Each block holds one molecule with its values, some of them ahead of it.
Test system: 598228-144-R-J1-PDC complex spheroids, viability
Test: Anticancer human tumor 598228-144-R-J1-PDC patient-derived serous endometrial adenocarcinoma cell line growth inhibition [CLK]
Details: for viability, T/C: stronger effect = lower value
Method in brief: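 Patient-derived tumor cells grown as complex spheroids with HUVEC endothelial cells and mesenchymal stem cells, treated with drug combinations. Concentrations descend in half-log steps from near clinical Cmax, or from 10 microM if Cmax unknown.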

[1] = curve of first compound, second compound 0.0316 µM
[2] = curve of first compound, second compound 0.1 µM
[3] = curve of first compound, second compound 0.316 µM
[4] = curve of first compound, second compound 1 µM
[5] = curve of first compound, second compound 3.16 µM
[6] = curve of first compound, second compound 10 µM
[7] = second compound 0.0316 µM, first compound 0.00949 µM
[8] = second compound 0.0316 µM, first compound 0.03 µM
[9] = second compound 0.0316 µM, first compound 0.0949 µM
[10] = second compound 0.0316 µM, first compound 0.3 µM
[11] = second compound 0.1 µM, first compound 0.00949 µM
[12] = second compound 0.1 µM, first compound 0.03 µM
[13] = second compound 0.1 µM, first compound 0.0949 µM
[14] = second compound 0.1 µM, first compound 0.3 µM
[15] = second compound 0.316 µM, first compound 0.00949 µM
[16] = second compound 0.316 µM, first compound 0.03 µM
[17] = second compound 0.316 µM, first compound 0.0949 µM
[18] = second compound 0.316 µM, first compound 0.3 µM
[19] = second compound 1 µM, first compound 0.00949 µM
[20] = second compound 1 µM, first compound 0.03 µM
[21] = second compound 1 µM, first compound 0.0949 µM
[22] = second compound 1 µM, first compound 0.3 µM
[23] = second compound 3.16 µM, first compound 0.00949 µM
[24] = second compound 3.16 µM, first compound 0.03 µM
[25] = second compound 3.16 µM, first compound 0.0949 µM
[26] = second compound 3.16 µM, first compound 0.3 µM
[27] = second compound 10 µM, first compound 0.00949 µM
[28] = second compound 10 µM, first compound 0.03 µM
[29] = second compound 10 µM, first compound 0.0949 µM
[30] = second compound 10 µM, first compound 0.3 µM
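Note: spheroids exposed to compounds for seven days before readout.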
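Throughout, for viability, T/C: 100% = DMSO vehicle control wells.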

IC50 (curve of compound): > 10000 nM
SMILES: O=C(c1cc(Cc2n[nH]c(=O)c3ccccc23)ccc1F)N1CCN(C(=O)C2CC2)CC1
viability, T/C (compound 0.0316 µM): 93.1% and 97.7%
viability, T/C (compound 0.1 µM): 87.5% and 104%
viability, T/C (compound 0.316 µM): 95.4% and 94.2%
viability, T/C (compound 1 µM): 94.4% and 105%
viability, T/C (compound 3.16 µM): 97.5% and 103%
viability, T/C (compound 10 µM): 88% and 87.2%

IC50 (curve of compound): > 10000 nM
SMILES: CC(CO)NC(=O)c1cc(-c2ccc(Cl)cc2)nn(-c2cnn(C)c2)c1=O (stereo unspecified)
viability, T/C (compound 0.0316 µM): 92.9% and 110%
viability, T/C (compound 0.1 µM): 89.4% and 109%
viability, T/C (compound 0.316 µM): 98.2% and 116%
viability, T/C (compound 1 µM): 98.4% and 106%
viability, T/C (compound 3.16 µM): 76.6% and 111%
viability, T/C (compound 10 µM): 89.9% and 73.9%

IC50 (curve of compound): 4230 nM and 4300 nM
SMILES: C=C(F)C(=O)N1CCN(c2nc(OCC3CCCN3C)nc3c2CCN(c2cccc4cccc(Cl)c24)C3)CC1CC#N (stereo unspecified)
viability, T/C (compound 0.0316 µM): 91% and 112%
viability, T/C (compound 0.1 µM): 107% and 89.4%
viability, T/C (compound 0.316 µM): 97.2% and 105%
viability, T/C (compound 1 µM): 109% and 103%
viability, T/C (compound 3.16 µM): 66.6% and 68.1%
viability, T/C (compound 10 µM): 0.83% and 0.61%

Second part, the molecule before the results:

SMILES: CC(C)CC(NC(=O)C(Cc1ccccc1)NC(=O)c1cnccn1)B(O)O (stereo unspecified) + CN1CCN(c2cc(C(=O)Nc3cc4cc(-c5cnn(C)c5)ccc4cn3)ccn2)CC1
IC50 [1]: 4.12 nM
IC50 [2]: 2.54 nM
IC50 [3]: < 0.949 nM
IC50 [4]: < 0.949 nM
IC50 [5]: < 0.949 nM
IC50 [6]: < 0.949 nM
viability, T/C (second compound 0.0316 µM, first compound 0.000949 µM): 124%
viability, T/C (second compound 0.0316 µM, first compound 0.003 µM): 68.6%
viability, T/C [7]: 0.89%
viability, T/C [8]: 0.39%
viability, T/C [9]: 0.34%
viability, T/C [10]: 0.29%
viability, T/C (second compound 0.1 µM, first compound 0.000949 µM): 137%
viability, T/C (second compound 0.1 µM, first compound 0.003 µM): 35.3%
viability, T/C [11]: 0.57%
viability, T/C [12]: 0.37%
viability, T/C [13]: 0.35%
viability, T/C [14]: 2.83%
viability, T/C (second compound 0.316 µM, first compound 0.000949 µM): 19.9%
viability, T/C (second compound 0.316 µM, first compound 0.003 µM): 2.9%
viability, T/C [15]: 0.32%
viability, T/C [16]: 0.26%
viability, T/C [17]: 0.88%
viability, T/C [18]: 6.75%
viability, T/C (second compound 1 µM, first compound 0.000949 µM): 0.79%
viability, T/C (second compound 1 µM, first compound 0.003 µM): 0.61%
viability, T/C [19]: 0.36%
viability, T/C [20]: 0.23%
viability, T/C [21]: 1.86%
viability, T/C [22]: 4.83%
viability, T/C (second compound 3.16 µM, first compound 0.000949 µM): 1.18%
viability, T/C (second compound 3.16 µM, first compound 0.003 µM): 1.87%
viability, T/C [23]: 0.3%
viability, T/C [24]: 0.21%
viability, T/C [25]: 1.26%
viability, T/C [26]: 2.5%
viability, T/C (second compound 10 µM, first compound 0.000949 µM): 0.91%
viability, T/C (second compound 10 µM, first compound 0.003 µM): 2.49%
viability, T/C [27]: 0.22%
viability, T/C [28]: 0.2%
viability, T/C [29]: 3.91%
viability, T/C [30]: 3.86%

SMILES: Nc1ccn(C2OC(CO)C(O)C2(F)F)c(=O)n1 (stereo unspecified)
viability, T/C (compound 0.0316 µM): 32.7% and 37.1%
viability, T/C (compound 0.1 µM): 24.5% and 31.8%
viability, T/C (compound 0.316 µM): 20.6% and 26.5%
viability, T/C (compound 1 µM): 24.4% and 28%
viability, T/C (compound 3.16 µM): 21.4% and 36.8%
viability, T/C (compound 10 µM): 22% and 27.7%
IC50 (curve of compound): < 31.6 nM

SMILES: Nc1ccccc1NC(=O)c1ccc(CNC(=O)OCc2cccnc2)cc1
viability, T/C (compound 0.0316 µM): 104% and 85.5%
viability, T/C (compound 0.1 µM): 94.5% and 92.8%
viability, T/C (compound 0.316 µM): 78.2% and 73.5%
viability, T/C (compound 1 µM): 35.4% and 61.1%
viability, T/C (compound 3.16 µM): 20% and 20.5%
viability, T/C (compound 10 µM): 3.38% and 10.9%
IC50 (curve of compound): 713 nM and 1280 nM

SMILES: CC(=O)O[C@H]1C(=O)[C@@]2(C)[C@H]([C@H](OC(=O)c3ccccc3)[C@]3(O)C[C@H](OC(=O)[C@H](O)[C@@H](NC(=O)c4ccccc4)c4ccccc4)C(C)=C1C3(C)C)[C@]1(OC(C)=O)CO[C@@H]1C[C@@H]2O + CN1CCN(c2cc(C(=O)Nc3cc4cc(-c5cnn(C)c5)ccc4cn3)ccn2)CC1
IC50 [1]: < 31.6 nM
IC50 [2]: > 10000 nM
IC50 [3]: < 31.6 nM
IC50 [4]: < 31.6 nM
IC50 [5]: < 31.6 nM
IC50 [6]: < 31.6 nM
viability, T/C (second compound 0.0316 µM, first compound 0.0316 µM): 40.8%
viability, T/C (second compound 0.0316 µM, first compound 0.1 µM): 44.8%
viability, T/C (second compound 0.0316 µM, first compound 0.316 µM): 32.3%
viability, T/C (second compound 0.0316 µM, first compound 1 µM): 34.3%
viability, T/C (second compound 0.0316 µM, first compound 3.16 µM): 33.1%
viability, T/C (second compound 0.0316 µM, first compound 10 µM): 37.7%
viability, T/C (second compound 0.1 µM, first compound 0.0316 µM): 72.7%
viability, T/C (second compound 0.1 µM, first compound 0.1 µM): 61.2%
viability, T/C (second compound 0.1 µM, first compound 0.316 µM): 58.8%
viability, T/C (second compound 0.1 µM, first compound 1 µM): 64.5%
viability, T/C (second compound 0.1 µM, first compound 3.16 µM): 51.6%
viability, T/C (second compound 0.1 µM, first compound 10 µM): 51.1%
viability, T/C (second compound 0.316 µM, first compound 0.0316 µM): 19%
viability, T/C (second compound 0.316 µM, first compound 0.1 µM): 15.1%
viability, T/C (second compound 0.316 µM, first compound 0.316 µM): 20.1%
viability, T/C (second compound 0.316 µM, first compound 1 µM): 14.2%
viability, T/C (second compound 0.316 µM, first compound 3.16 µM): 18%
viability, T/C (second compound 0.316 µM, first compound 10 µM): 18.5%
viability, T/C (second compound 1 µM, first compound 0.0316 µM): 1.6%
viability, T/C (second compound 1 µM, first compound 0.1 µM): 1.9%
viability, T/C (second compound 1 µM, first compound 0.316 µM): 4.17%
viability, T/C (second compound 1 µM, first compound 1 µM): 1.92%
viability, T/C (second compound 1 µM, first compound 3.16 µM): 2.39%
viability, T/C (second compound 1 µM, first compound 10 µM): 1.8%
viability, T/C (second compound 3.16 µM, first compound 0.0316 µM): 1.6%
viability, T/C (second compound 3.16 µM, first compound 0.1 µM): 3.09%
viability, T/C (second compound 3.16 µM, first compound 0.316 µM): 2.8%
viability, T/C (second compound 3.16 µM, first compound 1 µM): 1.31%
viability, T/C (second compound 3.16 µM, first compound 3.16 µM): 1.95%
viability, T/C (second compound 3.16 µM, first compound 10 µM): 2.83%
viability, T/C (second compound 10 µM, first compound 0.0316 µM): 2.83%
viability, T/C (second compound 10 µM, first compound 0.1 µM): 0.86%
viability, T/C (second compound 10 µM, first compound 0.316 µM): 2.92%
viability, T/C (second compound 10 µM, first compound 1 µM): 1.09%
viability, T/C (second compound 10 µM, first compound 3.16 µM): 2.45%
viability, T/C (second compound 10 µM, first compound 10 µM): 2.11%

SMILES: NC(=O)C(=Cn1cnc(-c2cc(C(F)(F)F)cc(C(F)(F)F)c2)n1)c1cncnc1 + CN1CCN(c2cc(C(=O)Nc3cc4cc(-c5cnn(C)c5)ccc4cn3)ccn2)CC1
IC50 [1]: 236 nM
IC50 [2]: 344 nM
IC50 [3]: < 9.49 nM
IC50 [4]: < 9.49 nM
IC50 [5]: < 9.49 nM
IC50 [6]: < 9.49 nM
viability, T/C [7]: 108%
viability, T/C [8]: 109%
viability, T/C [9]: 72.9%
viability, T/C [10]: 47.6%
viability, T/C (second compound 0.0316 µM, first compound 0.949 µM): 29.3%
viability, T/C (second compound 0.0316 µM, first compound 3 µM): 37.8%
viability, T/C [11]: 114%
viability, T/C [12]: 87.4%
viability, T/C [13]: 76.9%
viability, T/C [14]: 47.7%
viability, T/C (second compound 0.1 µM, first compound 0.949 µM): 38.9%
viability, T/C (second compound 0.1 µM, first compound 3 µM): 9.13%
viability, T/C [15]: 12.9%
viability, T/C [16]: 6.08%
viability, T/C [17]: 0.74%
viability, T/C [18]: 0.62%
viability, T/C (second compound 0.316 µM, first compound 0.949 µM): 2.45%
viability, T/C (second compound 0.316 µM, first compound 3 µM): 1.39%
viability, T/C [19]: 0.59%
viability, T/C [20]: 0.85%
viability, T/C [21]: 1.1%
viability, T/C [22]: 1.03%
viability, T/C (second compound 1 µM, first compound 0.949 µM): 0.66%
viability, T/C (second compound 1 µM, first compound 3 µM): 0.41%
viability, T/C [23]: 1.32%
viability, T/C [24]: 2.21%
viability, T/C [25]: 2.27%
viability, T/C [26]: 1.81%
viability, T/C (second compound 3.16 µM, first compound 0.949 µM): 4.57%
viability, T/C (second compound 3.16 µM, first compound 3 µM): 0.46%
viability, T/C [27]: 0.86%
viability, T/C [28]: 0.87%
viability, T/C [29]: 1.32%
viability, T/C [30]: 0.79%
viability, T/C (second compound 10 µM, first compound 0.949 µM): 1.73%
viability, T/C (second compound 10 µM, first compound 3 µM): 0.39%
